According to patent publication US20100137221A1, “PEPTIDES THAT INTERACT WITH TOPOISOMERASE I AND METHODS THEREOF” (UNIVERSITY UTAH RESEARCH FOUNDATION, priority 2007, published 2010):
“Also recorded” adds a separate entry of the source. Where two headings read alike, the source gives them in different places. Each block holds one molecule with its values, some of them ahead of it. No end group written: not given here.

Columns and labels:
top1 [1] = molecular target: T1, top1 (Homo sapiens, UniProt P11387); experiment: Biosensor binding specificity, top1 versus topoisomerase II and tubulin over T1BP2 surface; set-up: made in house; host or cells: Sf9 insect cells (baculovirus) or human placenta; settings: 8.0 nM of each protein injected over T1BP2 channel
T1 sequence (P11387 1-765): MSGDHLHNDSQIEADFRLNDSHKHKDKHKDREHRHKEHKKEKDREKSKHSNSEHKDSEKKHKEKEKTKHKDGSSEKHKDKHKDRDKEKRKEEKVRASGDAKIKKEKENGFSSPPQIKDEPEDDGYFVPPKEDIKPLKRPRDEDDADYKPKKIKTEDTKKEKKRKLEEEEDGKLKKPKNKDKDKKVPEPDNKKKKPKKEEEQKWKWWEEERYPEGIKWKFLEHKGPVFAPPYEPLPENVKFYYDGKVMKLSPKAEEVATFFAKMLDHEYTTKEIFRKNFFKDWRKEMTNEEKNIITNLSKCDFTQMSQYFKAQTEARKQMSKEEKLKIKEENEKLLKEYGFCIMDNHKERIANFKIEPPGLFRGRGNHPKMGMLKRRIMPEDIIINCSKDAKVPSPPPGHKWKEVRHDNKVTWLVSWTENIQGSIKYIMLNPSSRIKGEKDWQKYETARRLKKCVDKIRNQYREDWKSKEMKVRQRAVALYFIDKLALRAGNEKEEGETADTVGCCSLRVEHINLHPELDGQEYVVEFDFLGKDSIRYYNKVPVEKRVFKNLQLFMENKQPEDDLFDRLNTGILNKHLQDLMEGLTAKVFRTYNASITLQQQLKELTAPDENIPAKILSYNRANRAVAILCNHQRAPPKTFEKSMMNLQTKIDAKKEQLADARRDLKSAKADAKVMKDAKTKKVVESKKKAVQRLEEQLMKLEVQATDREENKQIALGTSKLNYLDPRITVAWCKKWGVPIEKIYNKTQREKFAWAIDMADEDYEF
Method: These top1 experiments were evaluated with BIAevaluation Software 3.1 using Langmuir Kinetics to model the interaction. The accuracy of the fit to the model is illustrated by dashed lines representing actual data and narrow lines representing the fitted curves.

100 kDa top1 = molecular target: T2, 100 kDa top1 (Homo sapiens, UniProt P11387); experiment: top1-mediated DNA relaxation assay (supercoiled pBR322); assay type: biochemical; settings: 1 μM peptide
T2 construct: made in house; host or cells: Sf9 insect cells (baculovirus) or human placenta
T2 sequence (P11387 1-765): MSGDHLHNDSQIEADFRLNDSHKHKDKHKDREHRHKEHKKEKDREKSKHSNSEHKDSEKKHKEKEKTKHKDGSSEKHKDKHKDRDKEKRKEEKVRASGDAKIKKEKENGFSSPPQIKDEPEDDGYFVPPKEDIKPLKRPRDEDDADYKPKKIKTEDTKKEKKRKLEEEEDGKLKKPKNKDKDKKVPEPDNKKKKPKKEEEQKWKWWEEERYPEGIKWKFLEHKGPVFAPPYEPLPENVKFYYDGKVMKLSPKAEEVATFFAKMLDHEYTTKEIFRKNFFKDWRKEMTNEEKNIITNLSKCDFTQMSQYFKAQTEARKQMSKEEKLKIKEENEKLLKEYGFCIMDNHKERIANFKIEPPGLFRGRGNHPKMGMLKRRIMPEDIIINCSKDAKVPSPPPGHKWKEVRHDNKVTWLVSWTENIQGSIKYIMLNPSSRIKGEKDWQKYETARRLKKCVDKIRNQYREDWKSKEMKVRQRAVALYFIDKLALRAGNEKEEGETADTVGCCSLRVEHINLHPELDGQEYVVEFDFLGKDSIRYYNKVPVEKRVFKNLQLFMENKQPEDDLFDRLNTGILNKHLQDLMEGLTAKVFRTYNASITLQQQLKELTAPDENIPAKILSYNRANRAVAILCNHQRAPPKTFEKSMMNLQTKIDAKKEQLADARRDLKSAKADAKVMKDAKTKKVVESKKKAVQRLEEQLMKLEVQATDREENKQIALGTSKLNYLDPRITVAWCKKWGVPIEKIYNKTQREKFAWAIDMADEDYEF
Method: Top1 relaxation/cleavage activity assays: Peptides were assayed for their ability to interfere with or enhance relaxation of supercoiled DNA mediated by 100 kDa top1. The top1 and pBR322 were combined in a top1-reaction buffer (150 mM KCl, 12 mM MgCl2, 2 mM EDTA, 50 mM Tris HCl pH 7.5) at 37° C. for 30 minutes with 1 μM peptide. The 20 μl reactions were stopped with 1.0 μl of 1% SDS. Digestion of protein was performed by addition of 1.0 μg proteinase K for 30 minutes at 37° C., loaded with 5 μl of a standard 5×bromphenol blue/glycerol loading buffer and run in an 0.8% agarose gel in TAE (0.04 M Tris-acetate and 1.0 mM EDTA). DNA cleavage assays were performed in 20 μl volumes of reaction buffer (50 mM Tris-HCl (pH 7.5), 100 mM KCl, 10 mM MgCl2 0.5 mM EDTA, 0.2 mg/ml BSA), 500 ng of radiaolabeled (^3H thymidine) supercoiled rf (replicative form) M13 mp 19 DNA and 112 ng of top1. The reactions were incubated for 30 minutes at 30° C. and then treated with 1 μl of 1 mg/ml proteinase K in 0.05% SDS for an additional 30 minutes at 37° C. to transform the 9AC-top1-DNA complexes into nicked DNA. This was followed by electrophoresis in an 0.8% agarose-TAE gel containing ethidium bromide. […] Percent cleavage was determined by liquid scintillation counting of excised bands using the method described by Marshall et al. (Marshall 2003).

top1 [2] = molecular target: T1, top1; experiment: DNA cleavage complex assay with 9AC; assay type: biochemical; set-up: made in house; host or cells: Sf9 insect cells (baculovirus) or human placenta
Method: Top1 relaxation/cleavage activity assays: Peptides were assayed for their ability to interfere with or enhance relaxation of supercoiled DNA mediated by 100 kDa top1. The top1 and pBR322 were combined in a top1-reaction buffer (150 mM KCl, 12 mM MgCl2, 2 mM EDTA, 50 mM Tris HCl pH 7.5) at 37° C. for 30 minutes with 1 μM peptide. The 20 μl reactions were stopped with 1.0 μl of 1% SDS. Digestion of protein was performed by addition of 1.0 μg proteinase K for 30 minutes at 37° C., loaded with 5 μl of a standard 5×bromphenol blue/glycerol loading buffer and run in an 0.8% agarose gel in TAE (0.04 M Tris-acetate and 1.0 mM EDTA). […] The reactions were incubated for 30 minutes at 30° C. and then treated with 1 μl of 1 mg/ml proteinase K in 0.05% SDS for an additional 30 minutes at 37° C. to transform the 9AC-top1-DNA complexes into nicked DNA. This was followed by electrophoresis in an 0.8% agarose-TAE gel containing ethidium bromide. A control set of experiments and log serial dilutions of peptide were examined for each peptide. Percent cleavage was determined by liquid scintillation counting of excised bands using the method described by Marshall et al. (Marshall 2003).

top1 [3] = molecular target: T1, top1; settings: surface plasmon resonance
Method: Binding analysis: The binding analysis of the peptides was performed on a BIAcore 2000 instrument. A four channel CM5 sensor chip was derivatized with three top1 binding peptides (T1BPs 1, 2 and 4) and a control surface left blank. Catalytically active top1 was used as the mobile or analyte phase and diluted in 150 mM NaCl, 30 mM HEPES, 0.05% P20 and injected at various concentrations (8.0, 4.0, 2.0, 1.0 and 0.4 nM) through the instrument's microfluidics sample handling system at a flow rate of 30 μl/minute. With each injection of a particular concentration of top1, association and dissociation data for three peptides were generated. Binding constants were determined using the BIAevaluation 2.1 software.

human topoisomerase I [4] = molecular target: T3, human topoisomerase I (human, UniProt P11387 1-765, limits assumed); experiment: SPR (BIAcore), 100 kDa top1 applied at 1, 2.5, 5, 10 and 20 nM to the CPP4 flow cell, global fit [right panel]
T3 construct: also called top1; top 1
T3 sequence (looked up): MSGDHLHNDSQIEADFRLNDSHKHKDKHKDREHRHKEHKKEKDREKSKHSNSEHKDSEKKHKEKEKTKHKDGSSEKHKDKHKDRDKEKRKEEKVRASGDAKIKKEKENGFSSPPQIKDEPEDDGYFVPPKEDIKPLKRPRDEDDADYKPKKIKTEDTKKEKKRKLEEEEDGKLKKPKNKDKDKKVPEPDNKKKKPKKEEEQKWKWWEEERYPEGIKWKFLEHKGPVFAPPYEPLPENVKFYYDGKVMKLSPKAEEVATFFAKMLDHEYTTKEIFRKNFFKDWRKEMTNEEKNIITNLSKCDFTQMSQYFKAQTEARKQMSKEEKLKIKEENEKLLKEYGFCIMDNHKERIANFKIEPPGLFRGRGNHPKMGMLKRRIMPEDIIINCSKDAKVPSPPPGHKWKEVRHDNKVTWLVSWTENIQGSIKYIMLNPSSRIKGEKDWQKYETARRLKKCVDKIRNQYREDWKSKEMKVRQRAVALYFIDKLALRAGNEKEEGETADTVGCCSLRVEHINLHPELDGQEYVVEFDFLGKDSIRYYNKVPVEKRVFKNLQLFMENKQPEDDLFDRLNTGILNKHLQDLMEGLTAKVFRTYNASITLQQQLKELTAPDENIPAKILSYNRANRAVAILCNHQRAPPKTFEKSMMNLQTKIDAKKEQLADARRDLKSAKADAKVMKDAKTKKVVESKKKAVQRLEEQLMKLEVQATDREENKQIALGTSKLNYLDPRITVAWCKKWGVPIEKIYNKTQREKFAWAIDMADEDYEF
Method: Top 1 was applied to flow cells in 1, 2.5, 5, 10 and 20 nM concentrations. The overlaying curves represent the actual data for a given concentration of top 1 and the “fit” curves. Data were fit using the BIAeval 3000 global fitting software.

human topoisomerase I [5] = molecular target: T3, human topoisomerase I; experiment: phage display biopanning against top1-DNA-9AC, analytical titering against top1
Method: Phage display: Phage display was performed as described by Smith (Parmley 1989). Briefly, top1 was first biotinylated with a biotin derivative containing a spacer engineered to reduced steric interference (Pierce EZ-Link Biotin-PEO-Amine). The reaction was performed at a 5:1 molar ratio of biotin:top1 in 10 mM HEPES (pH 8.2) buffered 500 mM NaCl. The unreacted biotin was removed by gel filtration in a Biospin 30 column (BioRad) and biotinylated top1 was assayed for activity using a pull down method with streptavidin coated beads. The biotinylated top1 maintained catalytic activity. For phage display, 20 μg biotinylated top1 was reacted with a mixture of pBR322 and 9AC and 20 μg was applied to a 30 mm plastic petri dish coated with 10 μg of neutravidin (Pierce). The dish was then blocked with 3.0% bovine serum albumin, and 10 μl of a 10⁹/μl titer phage library in 100 μl TBS-0.05% Tween was added. Phage were allowed to associate with gentle rocking for 2 hours at 4° C., and then washed repeatedly over 2 hours at 4° C. with buffered saline containing 0.1% Tween. […]
Analytical titering: Ten μl of amplified phage clones (approximately 10¹² cfu) were incubated in 50 nM top1 for one hour at 4° C. on a rocker. […] Competent E. coli were added directly to the washed plates and the output assessed by counting a 10⁻⁶ dilution of the culture on tetracycline plates (FIG. 1). […]

Molecule: SAYAATVRGPLSSAS [T1BP2, SAYAATVRGPLSSAS]
binding specificity for top1 verses topoisomerase II and tubulin (top1 [1]): specificity for top1
effect on top1-mediated DNA relaxation (100 kDa top1): slight ability to inhibit top1-mediated relaxation; also recorded: Inhibition of top1 relaxation (slight increase in supercoiled DNA remaining)
effect on cleavage (in words) (top1 [2]; 0.45 μM 9AC, 20 ng top1): increase in cleavage at all but one concentration
increase in cleavage complex formation (top1 [2]; 0.45 μM and 0.9 μM 9AC, through the range of peptide concentrations tested): approximately 50%
affinity for top1 (in words) (top1 [3]): high nanomolar affinity
affinity for top1 (in words) (top1 [3]; listed as T1PB2): mid-nanomolar affinity

Molecule: DRVPLVHVIFNSFGY (also called CPP4) [T1BP3]
binding result (human topoisomerase I [4]): binds

Now from value to molecule:

binding result (human topoisomerase I [5]): binds
B1: T1BP5 (peptide)
peptide: EGQFTFPRGASE
notes: 12-mer, truncated due to a stop codon; also called CPP6; EGQFTFPRGASE

binding result (human topoisomerase I [5]): binds
Molecule: RNQGPVKMVFPIAPS (also called CPP5) [T1BP4]
